The record followed here is patent US7795287B2, “Therapeutic substituted hydantoins and related compounds” (Allergan, Inc., priority 2006, dated 2010).

The structures appear in SMILES notation.

Series [1] deals with T1, EP2 (Homo sapiens, UniProt P43116). Put plainly: EP2 cAMP. It counts as cell-based. The source says: (§1) U.S. patent application Ser. No. 11/553,143, filed on Oct. 26, 2006, incorporated by reference herein, describes the methods used to obtain the in vitro data in the table below.
The next series deals with T2, hEP3A (Homo sapiens, UniProt P43115).
T2 sequence (P43115 1-390): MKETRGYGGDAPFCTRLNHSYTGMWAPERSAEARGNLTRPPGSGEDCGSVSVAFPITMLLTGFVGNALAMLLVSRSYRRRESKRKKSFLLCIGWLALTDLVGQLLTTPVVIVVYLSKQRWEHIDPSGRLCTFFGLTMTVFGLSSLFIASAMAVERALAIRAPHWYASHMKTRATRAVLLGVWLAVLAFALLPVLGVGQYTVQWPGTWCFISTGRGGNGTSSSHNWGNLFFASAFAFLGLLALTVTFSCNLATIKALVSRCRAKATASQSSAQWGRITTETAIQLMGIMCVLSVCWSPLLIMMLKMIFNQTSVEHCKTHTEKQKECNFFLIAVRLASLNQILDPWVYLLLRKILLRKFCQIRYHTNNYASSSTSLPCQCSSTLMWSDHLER
Put plainly: Other Receptors, hEP3A. It counts as cell-based.
From the text: as §1

The target of a further series is EP4 (Homo sapiens, UniProt P35408). In words: EP4 binding (KI).
From the text: as §1

Series [2] addresses T1, EP2. Put plainly: EP2 flipr. It counts as cell-based.
From the text: as §1

In another series the target is T3, hDP (Homo sapiens, UniProt Q13258).
T3 sequence (Q13258 1-359): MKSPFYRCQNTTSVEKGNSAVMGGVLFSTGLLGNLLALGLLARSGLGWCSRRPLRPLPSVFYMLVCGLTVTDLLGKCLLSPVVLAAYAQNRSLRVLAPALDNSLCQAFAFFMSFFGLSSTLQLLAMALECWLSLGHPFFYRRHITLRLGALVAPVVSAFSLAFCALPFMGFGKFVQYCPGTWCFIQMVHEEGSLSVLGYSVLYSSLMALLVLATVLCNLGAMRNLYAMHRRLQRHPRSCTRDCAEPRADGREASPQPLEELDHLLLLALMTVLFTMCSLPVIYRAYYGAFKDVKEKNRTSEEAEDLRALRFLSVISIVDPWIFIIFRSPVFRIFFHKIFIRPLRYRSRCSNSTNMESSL
In words: Other Receptors, hDP. It counts as cell-based.
From the text: as §1

The target of series [3] is T1, EP2. Put plainly: EP2 binding (Ki).
From the text: as §1

Another series concerns normotensive dogs. Put plainly: Ocular surface hyperemia in normotensive dogs. The series is classed as in vivo. The settings on record: 0.003%, once daily for 5 days, maximum at 26 h. As to the method:
U.S. Pat. No. 7,091,231 describes the methods used to carry out the tests reported below.
Isopropyl 5-(3-(3-(4-(1-hydroxyhexyl)phenyl)-2,5-dioxoimidazolidin-4-yl)propyl)thiophene-2-carboxylate (31) was tested in normotensive dogs at 0.003%, dosing once daily for 5 days. The maximum intraocular pressure (IOP) decrease from baseline was 7.7 mmHg (45%) at 102 h; the maximum ocular surface hyperemia (OSH) score was 2.5 at 26 h.

T1 sequence (P43116 whole entry): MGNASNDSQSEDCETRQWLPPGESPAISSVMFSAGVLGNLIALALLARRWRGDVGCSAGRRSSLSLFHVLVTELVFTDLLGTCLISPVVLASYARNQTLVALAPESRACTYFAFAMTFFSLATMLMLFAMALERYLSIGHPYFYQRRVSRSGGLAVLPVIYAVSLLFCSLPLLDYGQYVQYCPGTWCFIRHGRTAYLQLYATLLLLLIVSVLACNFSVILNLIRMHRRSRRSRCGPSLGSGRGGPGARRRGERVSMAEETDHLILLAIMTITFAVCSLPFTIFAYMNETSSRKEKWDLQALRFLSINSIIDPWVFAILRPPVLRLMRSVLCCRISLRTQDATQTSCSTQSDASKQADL
Sequence of EP4 (P35408 whole entry): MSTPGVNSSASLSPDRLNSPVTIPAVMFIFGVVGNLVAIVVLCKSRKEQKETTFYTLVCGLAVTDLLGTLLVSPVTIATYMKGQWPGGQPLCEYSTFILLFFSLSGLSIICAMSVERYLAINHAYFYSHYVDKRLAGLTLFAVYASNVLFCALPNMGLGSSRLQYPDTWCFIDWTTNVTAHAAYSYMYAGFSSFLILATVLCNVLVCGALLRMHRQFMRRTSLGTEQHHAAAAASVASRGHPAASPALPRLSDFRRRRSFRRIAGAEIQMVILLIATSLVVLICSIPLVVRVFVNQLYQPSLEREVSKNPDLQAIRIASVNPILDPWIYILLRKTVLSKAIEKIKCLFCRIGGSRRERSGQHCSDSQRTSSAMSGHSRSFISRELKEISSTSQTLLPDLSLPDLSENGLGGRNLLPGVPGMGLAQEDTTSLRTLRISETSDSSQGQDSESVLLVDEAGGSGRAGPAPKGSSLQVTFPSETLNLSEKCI

For orientation: EC50 means the concentration that produces a half-maximal response. A low value points to a more potent agent. At EP2 [1], `CCCCCC(=O)c1ccc(N2C(=O)NC(=O)C2CCCc2ccc(C(=O)O)s2)cc1` (centres unmarked) came in with an EC50 of 0.2 nM.
As usually defined, the Ki is the equilibrium dissociation constant of an inhibitor or competing ligand from its target. A low value points to higher affinity. With `CCCCCC(O)c1ccc(N2C(=O)NC(=O)C2CCCc2ccc(C(=O)O)s2)cc1` (centres unmarked), the EC50 came to 10 nM on hEP3A, 3.5 nM at EP2 [2], 17400 nM on hDP and 0.1 nM on EP2 [1]. The Ki at EP4 was more than 10000 nM; at EP2 [3], 5 nM.
`CCCCCC(O)c1ccc(N2C(=O)NC(=O)C2CCCc2ccc(C(=O)OC(C)C)s2)cc1` (centres unmarked) [Compound 31, Isopropyl 5-(3-(3-(4-(1-hydroxyhexyl)phenyl)-2,5-dioxoimidazolidin-4-yl)propyl)thiophene-2-carboxylate]: the “maximum ocular surface hyperemia (OSH) score” value in the series on normotensive dogs was 2.5.
